US10519152B2, “Compounds and their use in treating cancer” (AstraZeneca AB, priority 2017, dated 2019)

Target: T1, Estrogen Receptor (ERα) in MCF-7 human ductal carcinoma breast cell line (Homo sapiens, UniProt P03372)
T1 construct: endogenous in cells; host or cells: MCF-7
T1 sequence (P03372 1-595): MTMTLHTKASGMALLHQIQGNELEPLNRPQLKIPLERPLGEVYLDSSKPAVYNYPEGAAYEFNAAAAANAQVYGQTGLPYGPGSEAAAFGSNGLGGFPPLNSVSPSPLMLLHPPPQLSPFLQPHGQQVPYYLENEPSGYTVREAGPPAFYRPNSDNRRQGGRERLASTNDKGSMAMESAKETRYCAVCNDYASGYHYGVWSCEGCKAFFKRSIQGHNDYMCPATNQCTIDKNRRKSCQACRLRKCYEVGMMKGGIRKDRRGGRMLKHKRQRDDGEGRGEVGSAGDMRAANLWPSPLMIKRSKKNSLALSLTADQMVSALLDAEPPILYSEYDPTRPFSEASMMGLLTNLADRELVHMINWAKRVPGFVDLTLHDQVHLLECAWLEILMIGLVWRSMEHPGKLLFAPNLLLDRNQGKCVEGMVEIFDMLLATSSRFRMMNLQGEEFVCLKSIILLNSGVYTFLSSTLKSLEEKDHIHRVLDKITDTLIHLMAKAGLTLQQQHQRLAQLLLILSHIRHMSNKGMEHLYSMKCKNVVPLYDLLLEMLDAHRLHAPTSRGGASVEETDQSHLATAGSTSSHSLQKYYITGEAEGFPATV
Assay: MCF-7 ER degradation assay (cell based immuno-fluorescence)
Details: MCF-7 cells; for ER degradation ≥ 90% at 0.3 μM: ER degradation by fulvestrant at 0.3 μM is defined as 100%; for DC50: 18-22 hours incubation, 50% reduction of ERα expression, single experiment or average of two or more, read-out: MCF-7 ER degradation IC50
Procedure, shortened: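 MCF-7 human ductal carcinoma breast cells were seeded at 3.75×10^4 cells per mL (40 μL per well) in 384 well plates with phenol red free DMEM containing 2 mM L-Glutamine and 5% (v/v) Charcoal/Dextran treated foetal calf serum. After overnight culture, compounds were acoustically dispensed, incubated 18-22 hours, then cells were formaldehyde-fixed and immunostained for ERα.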

SMILES	ER degradation ≥ 90% at 0.3 μM	DC50
Cc1ncsc1-c1ccc(CNC(=O)[C@@H]2C[C@@H](O)CN2C(=O)[C@@H](NC(=O)C(F)(F)OCCCCCCOc2cc(F)c([C@@H]3c4[nH]c5ccccc5c4C[C@@H](C)N3CC(C)(C)F)c(F)c2)C(C)(C)C)cc1 [Example 116, (2S,4R)-1-((S)-2-(2-((6-(3,5-Difluoro-4-((1R,3R)-2-(2-fluoro-2-methylpropyl)-3-methyl-2,3,4,9-tetrahydro-1H-pyrido[3,4-b]indol-1-yl)phenoxy)hexyl)oxy)-2,2-difluoroacetamido)-3,3-dimethylbutanoyl)-4-hydroxy-N-(4-(4-methylthiazol-5-yl)benzyl)pyrrolidine-2-carboxamide]	•	5.3 nM
Cc1ncsc1-c1ccc(CNC(=O)[C@@H]2C[C@@H](O)CN2C(=O)[C@@H](NC(=O)COCCCCCOc2ccc([C@@H]3c4[nH]c5ccccc5c4C[C@@H](C)N3CC(F)F)nc2)C(C)(C)C)cc1 [Example 17, (2S,4R)-1-((S)-2-(2-((5-((6-((1S,3R)-2-(2,2-Difluoroethyl)-3-methyl-2,3,4,9-tetrahydro-1H-pyrido[3,4-b]indol-1-yl)pyridin-3-yl)oxy)pentyl)oxy)acetamido)-3,3-dimethylbutanoyl)-4-hydroxy-N-(4-(4-methylthiazol-5-yl)benzyl)pyrrolidine-2-carboxamide]	•	41 nM
Cc1ncsc1-c1ccc([C@H](C)NC(=O)[C@@H]2C[C@@H](O)CN2C(=O)[C@@H](NC(=O)COCCCOCCCCCOc2cc(F)c([C@@H]3c4[nH]c5ccccc5c4C[C@@H](C)N3CC(C)(C)F)c(F)c2)C(C)(C)C)cc1 [Example 137, (2S,4R)-1-((S)-2-(2-(3-((5-(3,5-Difluoro-4-((R,3R)-2-(2-fluoro-2-methylpropyl)-3-methyl-2,3,4,9-tetrahydro-1H-pyrido[3,4-b]indol-1-yl)phenoxy)pentyl)oxy)propoxy)acetamido)-3,3-dimethylbutanoyl)-4-hydroxy-N—((S)-1-(4-(4-methylthiazol-5-yl)phenyl)ethyl)pyrrolidine-2-carboxamide]	••	0.8 nM
CC(=O)O[C@@H]1C[C@@H](C(=O)NCc2ccc(-c3scnc3C)cc2)N(C(=O)[C@@H](NC(=O)COCCOCCOCCOc2cc(F)c([C@@H]3c4[nH]c5ccccc5c4C[C@@H](C)N3CC(C)(C)F)c(F)c2)C(C)(C)C)C1 [Example 34, (3R,5S)-1-((S)-2-(tert-Butyl)-14-(3,5-difluoro-4-((1R,3R)-2-(2-fluoro-2-methylpropyl)-3-methyl-2,3,4,9-tetrahydro-1H-pyrido[3,4-b]indol-1-yl)phenoxy)-4-oxo-6,9,12-trioxa-3-azatetradecanoyl)-5-((4-(4-methylthiazol-5-yl)benzyl)carbamoyl)pyrrolidin-3-yl Acetate]	•	1 nM
Cc1ncsc1-c1ccc(CNC(=O)[C@@H]2C[C@@H](O)CN2C(=O)[C@@H](NC(=O)COCCCCC(=O)NCCOc2cc(F)c([C@@H]3c4[nH]c5ccccc5c4C[C@@H](C)N3CC(C)(C)F)c(F)c2)C(C)(C)C)cc1 [Example 142, (2S,4R)-1-((S)-2-(2-((5-((2-(3,5-Difluoro-4-((1R,3R)-2-(2-fluoro-2-methylpropyl)-3-methyl-2,3,4,9-tetrahydro-1H-pyrido[3,4-b]indol-1-yl)phenoxy)ethyl)amino)-5-oxopentyl)oxy)acetamido)-3,3-dimethylbutanoyl)-4-hydroxy-N-(4-(4-methylthiazol-5-yl)benzyl)pyrrolidine-2-carboxamide]	••	0.2 nM
Cc1ncsc1-c1ccc(CNC(=O)[C@@H]2C[C@@H](O)CN2C(=O)[C@@H](NC(=O)COCCCOCCCCOc2cc(F)c([C@@H]3c4[nH]c5ccccc5c4C[C@@H](C)N3CC(C)(C)F)c(F)c2)C(C)(C)C)cc1 [Example 129, (2S,4R)-1-((S)-2-(2-(3-(4-(3,5-Difluoro-4-((1R,3R)-2-(2-fluoro-2-methylpropyl)-3-methyl-2,3,4,9-tetrahydro-1H-pyrido[3,4-b]indol-1-yl)phenoxy)butoxy)propoxy)acetamido)-3,3-dimethylbutanoyl)-4-hydroxy-N-(4-(4-methylthiazol-5-yl)benzyl)pyrrolidine-2-carboxamide]	••	0.8 nM
Cc1ncsc1-c1ccc(CNC(=O)[C@@H]2C[C@@H](O)CN2C(=O)[C@@H](NC(=O)COCCCCCOCCOc2ccc([C@@H]3c4[nH]c5ccccc5c4C[C@@H](C)N3CC(F)F)nc2)C(C)(C)C)cc1 [Example 10, (2S,4R)-1-((S)-2-(2-((5-(2-((6-((1S,3R)-2-(2,2-Difluoroethyl)-3-methyl-2,3,4,9-tetrahydro-1H-pyrido[3,4-b]indol-1-yl)pyridin-3-yl)oxy)ethoxy)pentyl)oxy)acetamido)-3,3-dimethylbutanoyl)-4-hydroxy-N-(4-(4-methylthiazol-5-yl)benzyl)pyrrolidine-2-carboxamide]	••	12 nM
